Assays:
[1] = system: peripheral mononeuropathy nerve injury-induced tactile allodynia; test: Chung model of neuropathic pain (Chung surgery and von Frey test); type: in vivo, Sprague Dawley rats; conditions: 10 mg/kg, i.v.; von Frey thresholds over 90 min, rat
Experimental: Chung model of neuropathic pain (Chung surgery and von Frey test). To test agents for activity against peripheral mononeuropathy nerve injury-induced tactile allodynia, male Sprague Dawley rats (wt. 120-160 g) were surgically prepared with unilateral tight ligation of spinal nerves L5 and L6 following the method of Kim and Chung (Kim S. H., Chung J. M. (1992) Pain, September; 50(3):355-63). After 3-4 weeks recovery, paw withdrawal to light touch was assessed as described by Chaplan et al. (Chaplan S. R., et al., (1994) J. Neurosci Methods, July; 53(1):55-63). […] After acclimation, baseline von Frey thresholds were assessed for the injured hindpaw at −15 min. […] Following drug administration, von Frey thresholds were measured at 15, 30, 60 and 90 min. Data were analyzed by a 2-way repeated measures analysis of variance followed by Dunnett's test (p<0.05). […]
Reversal of neuropathic pain behavior may be expressed as a percentage (0-100%) of the maximum possible effect, over and above the vehicle effects. […]
For example, a compound which immediately reversed neuropathic pain behavior to normal levels, such that animals only responded to the highest von Frey filament (15 g), and maintained normal levels through out the post-drug testing period (90 min) would be calculated as Δ% MPE=100%.

[2] = system: systemic polyneuropathy nerve injury-induced tactile allodynia; test: Diabetic model of neuropathic pain (Streptozoticin & von Frey test); type: in vivo, Sprague Dawley rats; conditions: 10 mg/kg, i.v.; STZ diabetic rats, von Frey thresholds over 90 min
Experimental: Diabetic model of neuropathic pain (Streptozoticin & von Frey test). To test agents for activity against systemic polyneuropathy nerve injury-induced tactile allodynia, animals were treated with streptozoticin (STZ) to create a diabetic condition by selective cytotoxic action upon pancreatic β-islet cells that produce insulin following the method of Courteix, et al. (Courteix C., et al., (1993) Pain, April; 53(1):81-8). In brief, male Sprague Dawley rats (wt. 200-275 g) received an injection of STZ (75 mg/kg, i.p.) and diabetes was confirmed three weeks after STZ injection by measurement of tail vein blood glucose levels. After 3-4 weeks, paw withdrawal to light touch was assessed as described by Chaplan et al. (Chaplan S. R., et al., (1994) J Neurosci Methods, July; 53(1):55-63). In brief, rats are placed in a plastic cage with a wire mesh bottom and allowed to acclimate for 15-30 minutes, until cage exploration and grooming stops. […] After acclimation, baseline von Frey thresholds were assessed for the injured hindpaw at −15 min. […] Following drug administration, von Frey thresholds were measured at 15, 30, 60 and 90 min. Data were analyzed by a 2-way repeated measures analysis of variance followed by Dunnett's test (p<0.05). […]

CC(NC(=O)c1sc(-c2ccccc2F)nc1C(F)(F)F)c1cccc(OC(F)(F)F)c1 (centres unmarked) [Example 21, 2-(2-fluorophenyl)-4-(trifluoromethyl)-N-[1-[3-(trifluoromethoxy)phenyl]ethyl]-5-thiazolecarboxamide]
AUC (Δ % MPE) [1]: 28 (10 mg/kg, i.v.) Δ % MPE
AUC (Δ % MPE) [2]: 28 (10 mg/kg, i.v.) Δ % MPE
